Tests used:
Format in all cases: physicochemical
[1] = Stability test of everolimus with hypromellose in an ethanol solution (Reference Example 3); details: 10 mg everolimus with 150 mg hypromellose and 15 mg anhydrous lactose in 10 mL ethanol, 25° C.; immediately after the production (FIG. 4)
Procedure: (§1) It is to be noted that, in the analysis using liquid chromatography (HPLC) in the present test examples, the measurement was carried out under the following conditions. • Measurement column: Zorbax Eclipse XDB-C18, Rapid resolution HT, 100 mm×4.6 mm, 1.8 μm • Detector: ultraviolet absorption spectrophotometer (measurement wavelength: 278 nm) • Column temperature: 45° C. • Mobile phase A: 0.1% formic acid; mobile phase B: methanol/acetonitrile=50/50
The stability test of everolimus comprising a water-soluble polymeric carrier in an ethanol solution was carried out. 10 mL of ethanol was added to 150 mg of hypromellose (TC-5 E Type, manufactured by Shin-Etsu Chemical Co., Ltd.), and the obtained mixture was then stirred. To this mixture, 10 mg of everolimus was added, followed by stirring, and thereafter, 15 mg of anhydrous lactose was added to the reaction mixture, and the obtained mixture was further stirred. The thus prepared mixture was stored at 25° C.
The remaining amount of everolimus immediately after initiation of the storage test, and also 0.75 hours and 2 hours after initiation of the storage test was measured by high performance liquid chromatography (HPLC), and the peak area ratio of everolimus at each time point was then calculated.

[2] = Stability test of everolimus with hypromellose in ethanol:acetone (=9:1) (Reference Example 2); details: 10 mg everolimus with 150 mg hypromellose in 10 mL ethanol:acetone (=9:1), 25° C., up to 6 hours (FIG. 3)
Procedure: as §1
The stability test of everolimus comprising a water-soluble polymeric carrier in a mixed solution of ethanol and acetone (=9:1) was carried out. 10 mL of the mixed solution of ethanol and acetone (=9:1) was added to 150 mg of hypromellose (TC-5 E Type, manufactured by Shin-Etsu Chemical Co., Ltd.), and the obtained mixture was then stirred. To this mixture, 10 mg of everolimus was added, and the thus prepared mixture was then stored at 25° C.
(§2) The remaining amount of everolimus immediately after initiation of the storage test, and also 1 hour, 3 hours and 6 hours after initiation of the storage test was measured by high performance liquid chromatography (HPLC), and the peak area ratio of everolimus at each time point was then calculated.

[3] = Stability test of everolimus in various mixed solvents (Reference Example 1); details: 1 mg/mL everolimus in ethanol/acetone mixed solvents, 25° C., up to 24 hours; when the ratio of ethanol is increased (FIG. 2)
Procedure: as §1
The stability test of everolimus in various mixed solvents was carried out. Various mixed solvents were each added to everolimus, and the prepared solutions each containing 1 mg/mL everolimus were then stored at 25° C.
as §2, with “3 hours, 6” for “3”, “24” for “6”, “calculated. The ratio of solvents used for each sample is shown in Table 2, and the results obtained by measuring the remaining ratio of everolimus are shown in FIG. 2.” for “calculated.”

- remaining ratio of everolimus [1]: less than 96%
- stability of everolimus in mixture (in words) [2]: improved
- purity of everolimus in solution (trend in words) [3]: decreased
Compound: CO[C@H]1C[C@@H]2CC[C@@H](C)[C@@](O)(O2)C(=O)C(=O)N2CCCC[C@H]2C(=O)O[C@H]([C@H](C)C[C@@H]2CC[C@@H](OCCO)[C@H](OC)C2)CC(=O)[C@H](C)/C=C(\C)[C@@H](O)[C@@H](OC)C(=O)[C@H](C)C[C@H](C)/C=C/C=C/C=C/1C [everolimus, 40-O-(2-hydroxyethyl)rapamycin]
